Test results published in patent publication US8093297B2 (Mutual Pharmaceutical Company, Inc., priority 2009, dated 2012).
Where two headings read alike, the source gives them in different places.

What was measured:
[1] = colchicine given concomitantly with the named drug; cited from earlier work
[2] = Pharmacokinetic study in healthy adults of single vs. multiple oral doses of colchicine tablets (Example 1); conditions: for metabolite plasma concentration: after oral colchicine 0.6 mg single and multiple doses, LOQ 0.2 ng/mL, 13 subjects
Description: Subjects received a light breakfast served 60 minutes following dose administration in the morning and the evening dose was administered 90 minutes after an evening meal on Days 15 through 24 only. […] Study periods were separated by a 14-day washout. Following the single dose and the last dose of the multiple dose regimen (beginning on the mornings of Day 1 and Day 25, respectively), blood samples were collected (6 mL each) from each subject within 1 hour prior to dosing and after dose administration at study hours 0.5, 1, 1.5, 2, 3, 4, 6, 8, 10, 12, and 24 (while confined) and 36, 48, 72, and 96 (on an outpatient basis).
In tables, the parameter CL/F denotes the apparent total body clearance after administration, calculated as Total Dose/Total AUC0-tau; and Vd/F denotes the apparent total volume of distribution after administration, calculated as Total Dose/(Total AUC∞×Kel).
These include plasma concentration (C), as well as Cmax, Cn, C24, Tmax, and AUC. “Cmax” is the measured plasma concentration of the active agent at the point of maximum, or peak, concentration. “Cmin” is the measured plasma concentration of the active agent at the point of minimum concentration. “Cn” is the measured plasma concentration of the active agent at about n hours after administration. […] The term “Tmax” refers to the time from drug administration until Cmax is reached. “AUC” is the area under the curve of a graph of the measured plasma concentration of an active agent vs. time, measured from one time point to another time point. […] Time t can be the last time point with measurable plasma concentration for an individual formulation. The AUC0-∞, AUC∞ or AUC0-inf is the calculated area under the curve of plasma concentration versus time from time 0 to time infinity.

[3] = colchicine in plasma, N=23
[4] = Clinical drug-drug interaction study of colchicine and verapamil (Example 8); conditions: for AUC0-inf: both, human, in vivo, 0.6 mg
Description: (§1) This study was an open-label, non-randomized, single-center, one-sequence, two-period drug interaction study conducted in healthy male and female volunteers. Twenty-four (24) non-smoking, non-obese adult volunteers were enrolled. All subjects were dosed and studied as a single cohort, with each subject receiving the same treatment in a non-randomized fashion.
(§2) Pharmacokinetic parameters referred to herein describe the in vivo characteristics of drug (or a metabolite or a surrogate marker for the drug) over time. These include plasma concentration (C), as well as Cmax, Cn, C24, Tmax, and AUC. “Cmax” is the measured plasma concentration of the active agent at the point of maximum, or peak, concentration. “Cmin” is the measured plasma concentration of the active agent at the point of minimum concentration. “Cn” is the measured plasma concentration of the active agent at about n hours after administration. […] The term “Tmax” refers to the time from drug administration until Cmax is reached. “AUC” is the area under the curve of a graph of the measured plasma concentration of an active agent vs. time, measured from one time point to another time point. […] Time t can be the last time point with measurable plasma concentration for an individual formulation. The AUC0-∞, AUC∞ or AUC0-inf is the calculated area under the curve of plasma concentration versus time from time 0 to time infinity.

clinical [5] = conditions: both, human, plasma, 0.6 mg
Description: as §1, §2

clinical [6] = conditions: both, human, plasma, oral, 0.6 mg, geometric mean, colchicine in plasma, single 0.6 mg dose alone or with steady-state ketoconazole 200 mg b.i.d., ln-transformed data
Excerpt: This study was an open-label, non-randomized, single-center, one-sequence, two-period drug interaction study conducted in healthy male and female volunteers; there will be a 14-day washout between the two periods. Twenty-four (24) non-smoking, non-obese adult volunteers were enrolled.
as §2

clinical [7] = conditions: both, human, plasma, oral, 0.6 mg, colchicine in plasma
Description: This study was an open-label, non-randomized, single-center, one-sequence, two-period drug interaction study conducted in healthy male and female volunteers; there was a 14-day washout between the two periods. Twenty-four (24) non-smoking, non-obese adult volunteers were enrolled. All subjects were dosed and studied as a single cohort, with each subject receiving the same treatment in a non-randomized fashion.
Azithromycin was administered for 5 consecutive days (2×250 mg once daily [Day 15 only] and then 1×250 mg once daily Days 16-19) beginning on the morning of Day 15, with the last 250 mg azithromycin dose administered on the morning on Day 19.
Azithromycin plasma concentrations were not measured.
as §2

[8] = for AUC0-t, geometric mean / AUC∞, geometric mean / Cmax, geometric mean: single 0.6 mg dose alone or with steady-state ritonavir 100 mg b.i.d., ln-transformed data
Description: An open-label, non-randomized, single-center, one-sequence, two-period drug interaction study was conducted in healthy male and female volunteers; there will be a 14-day washout between the two periods. Twenty-four (24) non-smoking, non-obese adult volunteers were enrolled. All subjects were dosed and studied as a single cohort, with each subject receiving the same treatment in a non-randomized fashion.
On the evening of Day 18, study participants remained at the clinic for their final study confinement period.
as §2

clinical [9] = conditions: both, human, plasma, 0.6 mg, colchicine in plasma, single 0.6 mg dose alone (Day 1) or with steady-state diltiazem (Day 21), N=20, arithmetic mean
Description: as §1, §2

[10] = colchicine in plasma; single 0.6 mg dose alone (Day 1) or with steady-state diltiazem (Day 21); N=20; arithmetic mean
Description: as §1, §2

FMF patients = conditions: reported; cited from earlier work
[11] = not given; remark: listed apart in the source
[12] = colchicine in plasma, single 0.6 mg dose alone (Day 1) or with cyclosporine 100 mg (Day 15), N=23
Description: as §1, §2

[13] = colchicine in plasma, single 0.6 mg dose alone or with steady-state ketoconazole 200 mg b.i.d., ln-transformed data
[14] = single 0.6 mg dose alone (Day 1) or with steady-state clarithromycin (Day 29), arithmetic mean
[15] = colchicine in plasma, single 0.6 mg dose alone (Day 1) or with steady-state verapamil (Day 19), N=24, arithmetic mean
[16] = colchicine in plasma, single 0.6 mg dose alone or with steady-state verapamil HCl ER 240 mg once daily
[17] = multiple (b.i.d. x 10 days) oral doses colchicine 0.6 mg, after last dose Day 25, healthy adults N=13
[18] = single oral dose colchicine 0.6 mg, fasted, healthy adults N=13
[19] = single oral 0.6 mg colchicine following ketoconazole 200 mg b.i.d. x 5 days vs alone
[20] = co-administration with ritonavir 100 mg b.i.d. x 5 days
[21] = colchicine in plasma, single 0.6 mg dose alone (Day 1) or with steady-state ritonavir (Day 19), N=18, arithmetic mean
[22] = following ritonavir 100 mg b.i.d. x 5 days vs colchicine alone
[23] = co-administration with azithromycin
[24] = colchicine in plasma, single 0.6 mg dose alone (Day 1) or with steady-state azithromycin (Day 19), N=21, arithmetic mean
[25] = colchicine in plasma, single 0.6 mg dose alone or with steady-state azithromycin
[26] = colchicine, single 0.6 mg dose alone or with steady-state azithromycin, N=21, arithmetic mean
[27] = following azithromycin 500 mg then 250 mg x 4 days vs colchicine alone
[28] = colchicine in plasma, listed as Colchicine + Ritonovir

SMILES: CC[C@H]1OC(=O)[C@H](C)[C@@H](O[C@H]2C[C@@](C)(OC)[C@@H](O)[C@H](C)O2)[C@H](C)[C@@H](O[C@@H]2O[C@H](C)C[C@H](N(C)C)[C@H]2O)[C@](C)(OC)C[C@@H](C)C(=O)[C@H](C)[C@@H](O)[C@]1(C)O [Clarithromycin]
- Noted or Anticipated Outcome: toxicity reported with concomitant colchicine [1]: fatal colchicine toxicity

SMILES: COc1cc2c(c(OC)c1OC)-c1ccc(OC)c(=O)cc1[C@@H](NC(C)=O)CC2 [Colchicine + Ketoconazole]
- AUC0-t, geometric mean [13]: 33.2238 ng·h/mL
- AUC∞, geometric mean [13]: 42.143 ng·h/mL
- Cmax, geometric mean [13]: 5.0785 ng/mL
- Tmax (hr)* (colchicine in plasma, single 0.6 mg dose alone or with steady-state ketoconazole, N=23, *Median (Range) for Tmax): 1.02 h

SMILES: COc1c(O)cc2c(c1OC)-c1ccc(OC)c(=O)cc1[C@@H](NC(C)=O)CC2 [3-DMC, 3-O-demethylcolchciine]
- metabolite plasma concentration [2]: only one sample from 1 subject (of 13 subjects) had a detectable

SMILES: COc1cc2c(c(OC)c1OC)-c1ccc(OC)c(=O)cc1[C@@H](NC(C)=O)CC2 [Colchicine + Clarithromycin]
- AUC0-inf [3, 14]: 52.62 ng·h/mL
- AUC0-t [3, 14]: 41.95 ng·h/mL
- Cmax [3, 14]: 8.44 ng/mL
- Tmax (hr)* ([3]; single 0.6 mg dose alone or with steady-state clarithromycin, range printed beside): 1.00 h

SMILES: COc1cc2c(c(OC)c1OC)-c1ccc(OC)c(=O)cc1[C@@H](NC(C)=O)CC2 [Colchicine + Verapamil]
- AUC0-t [4, 15]: 24.64 ng·h/mL
- AUC0-∞ [4, 15]: 30.59 ng·h/mL
- Cmax [4, 15]: 3.85 ng/mL
- AUC0-t, geometric mean [4, 16]: 23.88921 ng·h/mL
- AUC∞, geometric mean [4, 16]: 29.55675 ng·h/mL
- Cmax, geometric mean [4, 16]: 3.63968 ng/mL
- Tmax ([4]; colchicine in plasma, single 0.6 mg dose alone or with steady-state verapamil, N=24, head says median for Tmax): 1.15 h

SMILES: COc1cc2c(c(OC)c1OC)-c1ccc(OC)c(=O)cc1[C@@H](NC(C)=O)CC2 [Colchicine, (−)-N-[(7S,12aS)-1,2,3,10-tetramethoxy-9-oxo-5,6,7,9-tetrahydrobenzo[a]heptalen-7-yl]-acetamide]
- AUC0-inf [3, 14]: 15.53 ng·h/mL
- AUC0-t [3, 14]: 12.37 ng·h/mL
- attainment of steady state (trough plasma concentrations) ([2]; 0.6 mg b.i.d.): by approximately the eighth day of dosing for most subjects
- elimination half-life ([2]; calculated following a single oral dose, stated not an accurate estimate): approximately 5 hours
- Cave, MEAN [2, 17]: 1.69722 ng/mL
- Cave, MEDIAN [2, 17]: 1.70192 ng/mL
- Cmin, MEDIAN [2, 17]: 0.9035 ng/mL
- Ke1, MEAN [2, 17]: 0.0267 h⁻¹
- Ke1, MEDIAN [2, 17]: 0.0261 h⁻¹
- quantifiability of plasma concentrations after a single dose ([2]; single 0.6 mg oral dose, healthy adults): no longer quantifiable 24 hours post-dose in all but 1 subject
- secondary colchicine peak ([2]; single dose or multiple dosing, individual subject data): no subject experienced a secondary colchicine peak
- Ke1, MEAN [2, 18]: 0.1829 h⁻¹
- Ke1, MEDIAN [2, 18]: 0.1992 h⁻¹
- Cmin prior to the morning dose higher than Cmin prior to the evening dose ([2]; steady state, Day 23 and Day 24): approximately 12%
- AUC0-inf (clinical [5]): 15 ng·h/mL
- AUC0-t (clinical [5]): 12.6 ng·h/mL
- Cmax (clinical [5]): 2.72 ng/mL
- Tmax (clinical [5]): 1.15 h
- decrease in total apparent oral clearance (co-administration with ketoconazole 200 mg b.i.d. x 5 days): 70%
- AUC∞, geometric mean [13]: 13.18592 ng·h/mL
- increase in AUC0-t of colchicine [19]: 190%
- increase in Cmax of colchicine [19]: 90%
- Cmax (clinical [6]): 2.6 ng/mL
- AUC0-inf ([4]; AUC0-∞, colchicine in plasma, single 0.6 mg dose alone (Day 1) or with steady-state verapamil (Day 19), N=24, arithmetic mean): 15.4 ng·h/mL
- AUC0-inf ([4]; AUC∞, geometric mean, colchicine in plasma, single 0.6 mg dose alone or with steady-state verapamil HCl ER 240 mg once daily): 14.4 ng·h/mL
- Cmax [4, 15]: 2.97 ng/mL
- AUC0-t, geometric mean [4, 16]: 12.2564 ng·h/mL
- CL/F ([4]; colchicine, single 0.6 mg dose alone or with steady-state verapamil, N=24, arithmetic mean): 43.93 L/h
- Cmax (clinical [7]; single 0.6 mg dose alone (Day 1) or with steady-state azithromycin (Day 19), N=21, arithmetic mean): 2.74 ng/mL
- Cmax (clinical [7]; geometric mean, single 0.6 mg dose alone or with steady-state azithromycin): 2.54 ng/mL
- decrease in total apparent oral clearance [8, 20]: 70%
- effect on Tmax [8, 20]: not affected
- AUC0-∞ [8, 21]: 10.41 ng·h/mL
- AUC0-t, geometric mean ([8]; colchicine in plasma): 7.64271 ng·h/mL
- AUC∞, geometric mean ([8]; colchicine in plasma): 9.55174 ng·h/mL
- Cmax, geometric mean ([8]; colchicine in plasma): 1.79837 ng/mL
- increase in exposure to a single 0.6-mg colchicine [8, 22]: approximately 245%
- increase in mean peak colchicine concentration [8, 22]: approximately 170%
- AUC0-t (clinical [9]): 10 ng·h/mL
- Cmax [10]: 2.17 ng/mL
- FMF patients who do not show a beneficial response to colchicine administration (FMF patients): 5-10%
- decrease in total apparent oral clearance [11, 23]: approximately 30%
- effect on Tmax [11, 23]: not affected
- AUC0-t [11, 24]: 11.98 ng·h/mL
- AUC0-∞ [11, 24]: 14.13 ng·h/mL
- AUC∞, geometric mean [11, 25]: 12.9318 ng·h/mL
- CL/F [11, 26]: 50.24 L/h
- increase in exposure to colchicine ([11]; concomitant administration of azithromycin (description)): approximately 46%
- increase in exposure to colchicine, AUC0-t [11, 27]: approximately 46%
- increase in exposure to colchicine, AUC0-∞ [11, 27]: approximately 40%
- increase in mean peak colchicine concentration [11, 27]: approximately 12%

SMILES: COc1cc2c(c(OC)c1OC)-c1ccc(OC)c(=O)cc1[C@@H](NC(C)=O)CC2 [Colchicine + Cyclosporine]
- Tmax (hr)* [12]: 1.13 h
- AUC0-inf ([12]; arithmetic mean): 47.31 ng·h/mL
- AUC0-t ([12]; arithmetic mean): 39.83 ng·h/mL
- Cmax ([12]; arithmetic mean): 8.82 ng/mL

SMILES: COc1cc2c(c(OC)c1O)-c1ccc(OC)c(=O)cc1[C@@H](NC(C)=O)CC2 [2-DMC, 2-O-demethylcolchicine]
- metabolite plasma concentration [2]: < 0.2 ng/mL

SMILES: COc1cc2c(c(OC)c1OC)-c1ccc(OC)c(=O)cc1[C@@H](NC(C)=O)CC2 [Colchicine + Azithromycin]
- AUC0-t [11, 24]: 17.16 ng·h/mL
- Cmax [11, 24]: 3.05 ng/mL
- AUC0-t, geometric mean [11, 25]: 16.09052 ng·h/mL
- AUC∞, geometric mean [11, 25]: 18.31283 ng·h/mL
- Cmax, geometric mean [11, 25]: 2.85622 ng/mL
- CL/F [11, 26]: 35.01 L/h
- t1/2 [11, 26]: 6.71 h

SMILES: COc1cc2c(c(OC)c1OC)-c1ccc(OC)c(=O)cc1[C@@H](NC(C)=O)CC2 [Colchicine + Diltiazem]
- AUC0-t [10]: 17.73 ng·h/mL
- AUC0-∞ [10]: 22.49 ng·h/mL
- Cmax [10]: 2.80 ng/mL

SMILES: COc1cc2c(c(OC)c1OC)-c1ccc(OC)c(=O)cc1[C@@H](NC(C)=O)CC2 [Colchicine + Ritonavir]
- AUC0-t [8, 21]: 29.05 ng·h/mL
- AUC0-∞ [8, 21]: 35.28 ng·h/mL
- Cmax [8, 21]: 4.99 ng/mL
- AUC0-t, geometric mean [8, 28]: 27.79308 ng·h/mL
- AUC∞, geometric mean [8, 28]: 33.77136 ng·h/mL
- Cmax, geometric mean [8, 28]: 4.83539 ng/mL
